Reference: US20030113385A1, “Use of combinations of active agents consisting of antimicrobially active substances and plant extracts containing terpene in veterinary medicine” (Boehringer Ingelheim Vetmedica GmbH, priority 1998, published 2003)

Tests used:
Staphylococcus aureus [1] = assay: MIC on growth of Staphylococcus aureus in nutrient solution (ISB), microtitre plates, turbidity; assay type: cell-based; details: for MIC: Staphylococcus aureus, read-out: average MIC (+standard deviation)
Procedure: (§1) The sensitivity tests and the experiments carried out with combinations of active agents—using the so-called Checkerboard design—in broth (nutrient medium) and milk, were carried out using microtitre plates. Three capsule-positive and three capsule-negative strains of Staphylococcus aureus were used. The so-called MIC value was determined by fluorometric methods (in milk).
(§2) The concentration of the standard solution of the tea tree oil used was 4% vol/vol.
(§3) The highest concentration used in the tests was 1/10th of the original standard solution, i.e. 0.4 vol-%.
1 Effect of tea tree oil (Ttoil) on the growth of Staphylococcus aureus in nutrient solution (ISB).
The results are given as the average minimum inhibitory concentration from four repeats
(§4) 3 Susceptibility of Staphylococcus aureus to selected antibacterial agents in nutrient medium (ISB) and milk. […] Each strain was tested […].

Staphylococcus aureus [2] = assay: MIC on growth of Staphylococcus aureus in milk, microtitre plates, fluorometric; assay type: cell-based; details: for MIC: Staphylococcus aureus, read-out: average MIC (+standard deviation)
Procedure: as §1, §2, §3
2 Effect of tea tree oil on the growth of Staphylococcus aureus in normal milk. Each strain was tested four times.
as §4

[3] = three capsule negative Staph. aureus strains
[4] = three capsule positive Staph. aureus strains

Compound	MIC (Staphylococcus aureus [1]; [3]) [µg/mL]	MIC (Staphylococcus aureus [1]; [4]) [µg/mL]	MIC range (in brackets) (Staphylococcus aureus [1]; [3])	MIC range (in brackets) (Staphylococcus aureus [1]; [4])	MIC (Staphylococcus aureus [2]; [3]) [µg/mL]	MIC (Staphylococcus aureus [2]; [4]) [µg/mL]	MIC range (in brackets) (Staphylococcus aureus [2]; [3])	average MIC (+standard deviation) (Staphylococcus aureus [1]; [3]) [µg/mL]	average MIC (+standard deviation) (Staphylococcus aureus [1]; [4]) [µg/mL]	average MIC (+standard deviation) (Staphylococcus aureus [2]; [3]) [µg/mL]	MIC range (in brackets) (Staphylococcus aureus [2]; [4])	average MIC (+standard deviation) (Staphylococcus aureus [2]; [4]) [µg/mL]
CC(=O)OCC1=C(C(=O)O)N2C(=O)[C@@H](NC(=O)Cc3cccs3)[C@H]2SC1 [Cephalothin, cephalothin]	0.188 ± 0.019	0.188 ± 0.019	(0.125-0.25) μg/ml	(0.125-0.25) μg/ml	0.167 ± 0.018	0.25	(0.125-0.25) μg/ml					
CC1(C)S[C@@H]2[C@H](NC(=O)Cc3ccccc3)C(=O)N2[C@H]1C(=O)O [Penicillin G, penicillin G]			(0.025-0.05) μg/ml	(0.025-0.05) μg/ml			(0.013-0.05) μg/ml	0.033 ± 0.004	0.035 ± 0.004	0.031 ± 0.005	(0.013-0.025) μg/ml	0.022 ± 0.002
spiramycin			(10-20) μg/ml	(10-20) μg/ml			(6.25-50) μg/ml	15 ± 1.5	15.83 ± 1.49	25.52 ± 4.82	(12.5-50) μg/ml	25 ± 3.77
CC1(C)S[C@@H]2[C@H](NC(=O)[C@H](N)c3ccccc3)C(=O)N2[C@H]1C(=O)O [Ampicillin, ampicillin]	0.198 ± 0.018	0.188 ± 0.019			0.104 ± 0.009	0.12 ± 0.005						
